Active and inactive are the calls of the source. The calls are words filed in the database; no cut-off is given here.

The nature of data set [1]: Toxicity in female BALB/cA nude mouse assessed as damage in lung at 15 mg/kg, iv measured after 24 hrs by H and E staining based analysis. It counts as organism-based. To be noted: in vivo.
A short description of data set [2]: Toxicity in female BALB/cA nude mouse assessed as damage in heart at 15 mg/kg, iv measured after 24 hrs by H and E staining based analysis. In kind it is organism-based. To be noted: in vivo.
Data set [3] deals with HCT-116. Kind of data set: Antitumor activity against human HCT-116 cells xenografted in female BALB/cA nude mouse model assessed as relative tumor proliferation rate at 15 mg/kg, iv administered twice per week measured after 107 days. In kind it is functional, organism-based. The conditions noted are these: time 107.0 day.
Data set [4] can be described thus: in vivo. To be noted: female, BALB/c, mouse, 15 mg/kg.
Data set [5] is described as follows: Cmax in female BALB/c mouse at 15 mg/kg measured up to 5 hrs by HPLC analysis. It counts as ADME, organism-based. The conditions noted are these: in vivo.
Data set [6] is described as follows: Toxicity in female BALB/cA nude mouse assessed as appearance of fibrosis in heart at 15 mg/kg, iv measured after 24 hrs by H and E staining based analysis. It counts as organism-based. The conditions noted are these: in vivo.
The nature of data set [7]: Toxicity in female BALB/cA nude mouse assessed as appearance of fibrosis in lung at 15 mg/kg, iv measured after 24 hrs by H and E staining based analysis. In kind it is organism-based. The conditions noted are these: in vivo.
Data set [8] has as its system BXPC-3. Kind of data set: Antitumor activity against human BXPC-3 cells xenografted in female BALB/cA nude mouse model assessed as suppression of tumor growth by measuring relative tumor proliferation rate at 38 mg/kg, iv measured after 24 days relative to control. In kind it is functional. The conditions noted are these: time 24 day. (In general: In xenograft studies the graft and the host belong to different species.)

Data set [9] in a line: Toxicity in female BALB/cA nude mouse assessed as appearance of loss of alveolar architecture at 15 mg/kg, iv BID for 35 days by H and E staining based analysis. To be noted: in vivo, 840 h, time 35 day. It counts as organism-based.
The subject of data set [10] is HCT-116. Kind of data set: Antitumor activity against human HCT-116 cells xenografted in female BALB/cA nude mouse model assessed as relative tumor proliferation rate at 15 mg/kg, iv administered twice per week measured on 107 days relative to control. To be noted: time 107 day. In kind it is functional.
Data set [11] in a line: Toxicity in female BALB/cA nude mouse assessed as effect on body weight loss at 15 mg/kg, iv administered twice per week measured after 107 days. To be noted: in vivo, 2568 h, time 107 day. It counts as organism-based.
Data set [12] can be described thus: Toxicity in female BALB/cA nude mouse assessed as mortality at 15 mg/kg, iv administered twice per week measured after 107 days. The conditions noted are these: in vivo, 2568 h, time 107 day. In kind it is organism-based.
In data set [13] the test system is BXPC-3. Kind of data set: Antitumor activity against human BXPC-3 cells xenografted in female BALB/cA nude mouse model assessed as suppression of tumor growth by measuring relative tumor proliferation rate at 38 mg/kg, iv measured after 35 days. It counts as functional, organism-based. The conditions noted are these: time 35.0 day.
The nature of data set [14]: Toxicity in female BALB/cA nude mouse assessed as pulmonary damage at 15 mg/kg, iv BID for 35 days by H and E staining based analysis. In kind it is organism-based. To be noted: in vivo, 840 h, time 35 day.
A short description of data set [15]: Toxicity in female BALB/cA nude mouse assessed as appearance of alveolar wall thickening at 15 mg/kg, iv BID for 35 days by H and E staining based analysis. It counts as organism-based. To be noted: in vivo, 840 h, time 35 day.
The nature of data set [16]: Toxicity in female BALB/cA nude mouse assessed as necrosis in tumor tissue at 15 mg/kg, iv measured after 24 hrs by H and E staining based analysis. To be noted: in vivo. It counts as organism-based.
Data set [17] in a line: Prodrug release in female BALB/c nude mouse tumor assessed as (S)-4,11-diethyl-4,9-dihydroxy-1,12-dihydro-14H-pyrano[3',4':6,7]indolizino[1,2-b]quinoline-3,14(4H)-dione accumulation at 15 mg/kg measured after 1 hr by HPLC analysis. In kind it is ADME, organism-based, Neoplasm. To be noted: in vivo.

For `CCc1c2c(nc3ccc(OC(=O)N4CCC(N5CCCCC5)CC4)cc13)-c1cc3c(c(=O)n1C2)COC(=O)[C@]3(O)CC` [IRINOTECAN], the Activity entry is given as “Toxic” in data set [1]; “Toxic” in data set [2]; “Toxic” in [6]; “Toxic” in [7]; 43.53% in data set [8]; “Toxic” in data set [9]. For the same compound, the Activity is listed as 50.36% in data set [10]; “Toxic” in data set [11]; “Non-toxic” in [12]; “Toxic” in [14]; “Toxic” in [15]; “Toxic” in [16]. Further, the outcome in [3] and in data set [13] was inactive. In addition, the AUC(0-t) – broadly, the area under the concentration-time curve up to a stated or last time point – at 5 h in [4] was 3120 ng·h/mL. For the same compound, the Cmax (commonly the highest concentration seen after dosing) in data set [5] amounted to 3040 ng/mL. The Drug metabolism in data set [17] is listed as 0.032 % ID/g.

Source of the values: ChEMBL document CHEMBL6134851, “Comparative Study on Covalent and Noncovalent Endogenous Albumin-Binding β-Glucuronidase-Activated SN38 Prodrugs for Antitumor Efficacy” (J Med Chem, 2025).
